Test results: US20250368649A1, “TETRAHYDROPYRIDOPYRIMIDINE PAN-KRAS INHIBITORS” (Mirati Therapeutics, Inc., priority 2022, published 2025)

Key:
[1] = system: ASPC1 cells; assay: Inhibition of KRas-mediated phosphorylation of ERK (Cisbio HTRF pERK), ASPC1 cells; type: cell-based; conditions: Homo sapiens, AsPC-1 cells; for IC50: ASPC1, 3 h, 3 hr compound incubation; for inhibition at 0.1 µM: ASPC1, single point at 100 nM, 3 hrs compound incubation
[2] = system: A549 cells; assay: Inhibition of KRas-mediated phosphorylation of ERK (Cisbio HTRF pERK), A549 cells; type: cell-based; conditions: Homo sapiens; for inhibition at 0.1 µM: single point at 100 nM, 3 hrs compound incubation; for IC50: A549, 3 h, 3 hr compound incubation
[3] = molecular target: KRas G12V (Homo sapiens, UniProt P01116, G12V); assay: biochemical; conditions: Binding to KRas (IC50 nM) G12V, TR-FRET displacement, KRas G12V
KRas G12V, sequence (P01116 1-169 isoform P01116-2 G12V): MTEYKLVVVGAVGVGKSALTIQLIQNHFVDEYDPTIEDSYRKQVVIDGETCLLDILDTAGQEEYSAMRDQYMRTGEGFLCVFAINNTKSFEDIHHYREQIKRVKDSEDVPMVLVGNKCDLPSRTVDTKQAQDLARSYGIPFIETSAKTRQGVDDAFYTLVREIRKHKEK

[4] = molecular target: KRas G12D (Homo sapiens, UniProt P01116, G12D); assay: biochemical; conditions: Binding to KRas (IC50 nM) G12D, TR-FRET displacement, KRas G12D
KRas G12D, sequence (P01116 1-169 isoform P01116-2 G12D): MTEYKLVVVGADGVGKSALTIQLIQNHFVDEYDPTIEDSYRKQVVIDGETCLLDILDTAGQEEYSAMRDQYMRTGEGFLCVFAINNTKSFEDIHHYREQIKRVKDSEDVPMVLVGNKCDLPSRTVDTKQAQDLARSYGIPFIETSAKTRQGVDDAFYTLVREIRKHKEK

[5] = system: H727 cells; assay: Inhibition of KRas-mediated phosphorylation of ERK (Cisbio HTRF pERK), H727 cells; type: cell-based; conditions: Homo sapiens; for IC50: NCI-H727, 3 h, 3 hr compound incubation; for inhibition at 0.1 µM: NCI-H727, single point at 100 nM, 3 hrs compound incubation
[6] = system: H460 cells; assay: Inhibition of KRas-mediated phosphorylation of ERK (Cisbio HTRF pERK), H460 cells; type: cell-based; conditions: Homo sapiens; for inhibition at 0.1 µM: NCI-H460, single point at 100 nM, 3 hrs compound incubation; for IC50: NCI-H460, 3 h, 3 hr compound incubation
[7] = system: HCT116 cells; assay: Inhibition of KRas-mediated phosphorylation of ERK (Cisbio HTRF pERK), HCT116 cells; type: cell-based; conditions: Homo sapiens; for inhibition at 0.1 µM: HCT-116, single point at 100 nM, 3 hrs compound incubation; for IC50: HCT-116, 3 h, 3 hr compound incubation
[8] = molecular target: KRas G12R (Homo sapiens, UniProt P01116, G12R); assay: biochemical; conditions: Binding to KRas (IC50 nM) G12R, TR-FRET displacement, KRas G12R
KRas G12R, sequence (P01116 1-169 isoform P01116-2 G12R): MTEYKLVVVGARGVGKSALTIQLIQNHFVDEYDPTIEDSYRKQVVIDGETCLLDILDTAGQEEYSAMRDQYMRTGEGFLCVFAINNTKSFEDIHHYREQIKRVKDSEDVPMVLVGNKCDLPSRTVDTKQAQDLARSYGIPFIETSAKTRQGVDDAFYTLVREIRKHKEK

[9] = system: H358 cells; assay: Inhibition of KRas-mediated phosphorylation of ERK (Cisbio HTRF pERK), H358 cells; type: cell-based; conditions: Homo sapiens; for inhibition at 0.1 µM: NCI-H358, single point at 100 nM, 3 hrs compound incubation; for IC50: NCI-H358, 3 h, 3 hr compound incubation

Row | IC50 ([1]; Cisbio pERK HTRF) [nM] | IC50 [3] [nM] | IC50 [4] [nM] | IC50 ([5]; Cisbio pERK HTRF) [nM] | IC50 [8] [nM] | SMILES | inhibition at 0.1 µM [2] [%] | inhibition at 0.1 µM [6] [%] | inhibition at 0.1 µM [7] [%] | inhibition at 0.1 µM [9] [%] | further results
1 | 52 | < 2 | < 2 | 1560 | 4 | CCc1c(F)ccc2cc(O)cc(N3CCc4c(nc(OC[C@@]56CCCN5C[C@H](F)C6)nc4N4CCCn5nc(C(=O)N6CC7CNC(C7)C6)cc5C4)C3)c12 (stereo partly drawn) [Example 234, 3,6-diazabicyclo[3.2.1]octan-3-yl(5-(7-(8-ethyl-7-fluoro-3-hydroxynaphthalen-1-yl)-2-(((2R,7aS)-2-fluorohexahydro-1H-pyrrolizin-7a-yl)methoxy)-5,6,7,8-tetrahydropyrido[3,4-d]pyrimidin-4-yl)-5,6,7,8-tetrahydro-4H-pyrazolo[1,5-a][1,4]diazepin-2-yl)methanone] | 9 | -4 | 14 | -28 | inhibition at 0.1 µM [1]: 34%; inhibition at 0.1 µM [5]: 22%
2 | 879 | 5 | 6 | 687 | 6 | CCc1c(F)ccc2cc(O)cc(N3CCc4c(nc(OC[C@@]56CCCN5C[C@H](F)C6)nc4N4CCCn5nc(CCCC(=O)N(C)C)cc5C4)C3)c12 [Example 316, 4-(5-(7-(8-ethyl-7-fluoro-3-hydroxynaphthalen-1-yl)-2-(((2R,7aS)-2-fluorohexahydro-1H-pyrrolizin-7a-yl)methoxy)-5,6,7,8-tetrahydropyrido[3,4-d]pyrimidin-4-yl)-5,6,7,8-tetrahydro-4H-pyrazolo[1,5-a][1,4]diazepin-2-yl)-N,N-dimethylbutanamide] | -4 | -20 | -2 | -22 | IC50 ([2]; Cisbio pERK HTRF): 1390 nM; IC50 ([6]; Cisbio pERK HTRF): 1770 nM; IC50 ([7]; Cisbio pERK HTRF): 3140 nM; IC50 ([9]; Cisbio pERK HTRF): 536 nM
3 | 999 | 50 | 12 | 1690 | 43 | CCc1c(F)ccc2cc(O)cc(N3CCc4c(nc(OC[C@@]56CCCN5C[C@H](F)C6)nc4N4CCCn5nc(N(C)S(C)(=O)=O)cc5C4)C3)c12 [Example 334, N-(5-(7-(8-ethyl-7-fluoro-3-hydroxynaphthalen-1-yl)-2-(((2R,7aS)-2-fluorohexahydro-1H-pyrrolizin-7a-yl)methoxy)-5,6,7,8-tetrahydropyrido[3,4-d]pyrimidin-4-yl)-5,6,7,8-tetrahydro-4H-pyrazolo[1,5-a][1,4]diazepin-2-yl)-N-methylmethanesulfonamide] | 12 | -1 | 12 | 2 | 
4 | 1200 | 24 | 8 | 1980 | 105 | CCc1c(F)ccc2cc(OC)cc(N3CCc4c(nc(OC[C@@]56CCCN5C[C@H](F)C6)nc4N4CCCn5nc(C(=O)N(C)C)cc5C4)C3)c12 [Example 469, 5-(7-(8-ethyl-7-fluoro-3-methoxynaphthalen-1-yl)-2-(((2R,7aS)-2-fluorohexahydro-1H-pyrrolizin-7a-yl)methoxy)-5,6,7,8-tetrahydropyrido[3,4-d]pyrimidin-4-yl)-N,N-dimethyl-5,6,7,8-tetrahydro-4H-pyrazolo[1,5-a][1,4]diazepine-2-carboxamide] | -1 | 2 | 0 | 0 | 
5 | 779 | 44 | 29 | 656 | 32 | CCc1c(F)ccc2cc(O)cc(N3CCc4c(nc(OC[C@@]56CCCN5C[C@H](F)C6)nc4N4CCCn5nc(N(C)C(=O)C(C)C)cc5C4)C3)c12 [Example 335, N-(5-(7-(8-ethyl-7-fluoro-3-hydroxynaphthalen-1-yl)-2-(((2R,7aS)-2-fluorohexahydro-1H-pyrrolizin-7a-yl)methoxy)-5,6,7,8-tetrahydropyrido[3,4-d]pyrimidin-4-yl)-5,6,7,8-tetrahydro-4H-pyrazolo[1,5-a][1,4]diazepin-2-yl)-N-methylisobutyramide] | 13 | 10 | 15 | 0 | 
6 | 3140 | 62 | 57 | 4100 | 21 | CCc1c(F)ccc2cc(O)cc(N3CCc4c(nc(OC[C@@]56CCCN5C[C@H](F)C6)nc4N4CCCc5nn(C6CC6)cc5C4)C3)c12 [Example 239, 4-(4-(2-cyclopropyl-7,8-dihydropyrazolo[4,3-c]azepin-5(2H,4H,6H)-yl)-2-(((2R,7aS)-2-fluorohexahydro-1H-pyrrolizin-7a-yl)methoxy)-5,6-dihydropyrido[3,4-d]pyrimidin-7(8H)-yl)-5-ethyl-6-fluoronaphthalen-2-ol] | -9 | 11 | -5 | -8 | inhibition at 0.1 µM [1]: 6%; inhibition at 0.1 µM [5]: -8%

The next lines start with the compound.

Row | SMILES | IC50 ([1]; Cisbio pERK HTRF) [nM] | IC50 [3] [nM] | IC50 [4] [nM] | IC50 ([5]; Cisbio pERK HTRF) [nM] | IC50 [8] [nM] | inhibition at 0.1 µM [2] [%] | inhibition at 0.1 µM [6] [%] | inhibition at 0.1 µM [7] [%] | inhibition at 0.1 µM [9] [%] | further results
7 | CN(C)CC1(COc2nc3c(c(N4CCCn5nc(C(=O)N6CCOCC6)cc5C4)n2)CCN(c2cc(O)cc4ccc(F)c(Cl)c24)C3)CC1 [Example 468, (5-(7-(8-chloro-7-fluoro-3-hydroxynaphthalen-1-yl)-2-((l-((dimethylamino)methyl)cyclopropyl)methoxy)-5,6,7,8-tetrahydropyrido[3,4-d]pyrimidin-4-yl)-5,6,7,8-tetrahydro-4H-pyrazolo[1,5-a][1,4]diazepin-2-yl)(morpholino)methanone] | 1940 | 3 | 2 | 1770 | 10 | -12 | -7 | -4 | -2 | 
8 | CCc1c(F)ccc2cc(O)cc(N3CCc4c(nc(OC[C@@]56CCCN5C[C@H](F)C6)nc4N4CCCCC(COCC(=O)N(C)C)C4)C3)c12 (stereo partly drawn) [Example 251, 2-((1-(7-(8-ethyl-7-fluoro-3-hydroxynaphthalen-1-yl)-2-(((2R,7aS)-2-fluorohexahydro-1H-pyrrolizin-7a-yl)methoxy)-5,6,7,8-tetrahydropyrido[3,4-d]pyrimidin-4-yl)azepan-3-yl)methoxy)-N,N-dimethylacetamide] | 1310 | 5 | 7 | 1200 | 3 | 21 | 15 | -7 | 2 | inhibition at 0.1 µM [1]: -4%; inhibition at 0.1 µM [5]: 3%
9 | CCc1c(F)ccc2cc(O)cc(N3CCc4c(nc(OCC5(CN(C)C)CC5)nc4N4CCOC(c5n[nH]c(CO)n5)C4)C3)c12 (stereo not shown) [Example 602, 4-(2-((1-((dimethylamino)methyl)cyclopropyl)methoxy)-4-(2-(5-(hydroxymethyl)-1H-1,2,4-triazol-3-yl)morpholino)-5,8-dihydropyrido[3,4-d]pyrimidin-7(6H)-yl)-5-ethyl-6-fluoronaphthalen-2-ol] | > 10000 | 6 | 44 | > 10000 | 3 |  |  |  |  | IC50 ([2]; Cisbio pERK HTRF): > 10000 nM; IC50 ([6]; Cisbio pERK HTRF): 7580 nM; IC50 ([7]; Cisbio pERK HTRF): > 10000 nM; IC50 ([9]; Cisbio pERK HTRF): 907 nM
10 | CCc1c(F)ccc2cc(O)cc(N3CCc4c(nc(OC[C@@]56CCCN5C[C@H](F)C6)nc4N4CCCCC(CC(N)=O)C4)C3)c12 (stereo partly drawn) [Example 347, 2-(1-(7-(8-ethyl-7-fluoro-3-hydroxynaphthalen-1-yl)-2-(((2R,7aS)-2-fluorohexahydro-1H-pyrrolizin-7a-yl)methoxy)-5,6,7,8-tetrahydropyrido[3,4-d]pyrimidin-4-yl)azepan-3-yl)acetamide] | 690 | 2 | 7 | 541 | 2 | 28 | 21 | -14 | 5 | 
11 | CCc1c(F)ccc2cc(O)cc(N3CCc4c(nc(OC[C@@]56CCCN5C[C@H](F)C6)nc4N4CCCN(CC(F)(F)F)CC4)C3)c12 [Example 649, 5-ethyl-6-fluoro-4-(2-(((2R,7aS)-2-fluorotetrahydro-1H-pyrrolizin-7a(5H)-yl)methoxy)-4-(4-(2,2,2-trifluoroethyl)-1,4-diazepan-1-yl)-5,8-dihydropyrido[3,4-d]pyrimidin-7(6H)-yl)naphthalen-2-ol] |  | 29 | 124 |  | 34 |  |  |  |  | IC50 [1]: 6520 nM; IC50 [2]: 3100 nM; IC50 [5]: 3710 nM; IC50 [6]: 2440 nM; IC50 [7]: > 10000 nM; IC50 [9]: 1100 nM
